Results from US20040191849A1, “Method for identifying fungicides” (priority 2002, published 2004).
One block for each compound: values may come before it.

How the values were obtained:
RPI = assay: Spectrophotometric RPI assay, increase in absorption at 290 nm (KM determination); conditions: read-out: KM value; substrate of RPI; Lineweaver-Burk plot; 400 ng of RPI; without coupled enzymes
[1] = tested on: ribose-phosphate isomerase; conditions: Jung et al., Arch. Biochem. Biophys. 373 (2000) 409-417; cited from earlier work
Erysiphe graminis = assay: Induction of resistance to Erysiphe graminis in a plant; assay type: in vivo; conditions: Hordeum vulgaris; inoculated with Erysiphe graminis 4 days after treatment; 100 = maximum activity, 0 = no activity
Source text: In the case of Erysiphe graminis, the induction of resistance to this fungus, in a plant, was furthermore tested by way of example. To this end, the plant is inoculated with the pathogen 4 days after treatment of the plant with the test substance. The activity of the substance is given as efficacy in %.

Km (RPI): 6.3 mM
Compound: O=C[C@H](O)[C@H](O)[C@H](O)COP(=O)(O)O [D-ribose-5-phosphate]

Compound: phosphate
ribose-phosphate isomerase inhibitor strength [1]: weak

Compound: COc1ccc(S(=O)(=O)N(C)C)cc1CCC(C)NCC1CC2(CCCC2)Oc2ccccc21.O=C(O)/C=C/C(=O)O (stereo not drawn) [Example 2]
resistance induction (efficacy) (Erysiphe graminis): 50%
